# Experimental data from ChEMBL document CHEMBL5036351, “Discovery of novel, potent and orally efficacious inhibitor of neutral amino acid transporter B0AT1 (SLC6A19)” (Bioorg Med Chem Lett, 2021).
# Legend:
# Mus musculus [1] = test: Anti-obesity activity in C57BL/6J mouse model of diet-induced obesity assessed as reduction in area under curve at 25 mg/kg, po dosed once daily for 28 days by insulin tolerance test; assay type: functional; parameters: scale not given: the % may be the effect or the level left; conditions: time 28 day
# Mus musculus [2] = test: Anti-obesity activity in high fat diet induced C57BL/6J mouse model assessed as change in body weight at 25 mg/kg, po dosed once daily for 28 days; assay type: functional; conditions: time 28 day
# [3] = Inhibition of B0AT1 (unknown origin) by radiolabled uptake assay; parameters: species or system Homo sapiens
# [4] = Inhibition of B0AT1 (unknown origin) by FLIPR assay; parameters: species or system Homo sapiens
# Cytochrome P450 3A4 = Cytochrome P450 3A4 (Homo sapiens, UniProt P08684); test: Inhibition of CYP3A4 (unknown origin); assay type: ADME
# [5] = Cmax in C57BL/6 mouse at 3 mg/kg, po; assay type: ADME, organism-based; parameters: route oral, dose 3 mg/kg; conditions: in vivo
# [6] = Half life in C57BL/6 mouse at 1 mg/kg, iv; assay type: ADME, organism-based; conditions: in vivo
# [7] = MRT in C57BL/6 mouse at 3 mg/kg, po; assay type: ADME, organism-based; conditions: in vivo
# [8] = Metabolic stability in mouse liver microsomes; assay type: ADME, Microsome
# [9] = AUC (0 to t) in C57BL/6 mouse at 1 mg/kg, iv; assay type: ADME, organism-based; parameters: dose 1 mg/kg; conditions: in vivo
# Cytochrome P450 2C19 = Cytochrome P450 2C19 (Homo sapiens, UniProt P33261); test: Inhibition of CYP2C19 (unknown origin); assay type: ADME
# [10] = MRT in C57BL/6 mouse at 1 mg/kg, iv; assay type: ADME, organism-based; conditions: in vivo
# [11] = Metabolic stability in human liver microsomes; assay type: ADME, Microsome
# [12] = Clearance in C57BL/6 mouse at 1 mg/kg, iv; assay type: ADME, organism-based; conditions: in vivo
# [13] = Metabolic stability in dog liver microsomes; assay type: ADME, Canis lupus familiaris, Microsome
# [14] = Metabolic stability in rat liver microsomes; assay type: ADME, Microsome
# [15] = Half life in C57BL/6 mouse at 3 mg/kg, po; assay type: ADME, organism-based; conditions: in vivo
# Cytochrome P450 2C8 = target: T1, Cytochrome P450 2C8 (Homo sapiens, UniProt P10632); test: Inhibition of CYP2C8 (unknown origin); assay type: ADME
# T1 sequence (P10632 whole entry): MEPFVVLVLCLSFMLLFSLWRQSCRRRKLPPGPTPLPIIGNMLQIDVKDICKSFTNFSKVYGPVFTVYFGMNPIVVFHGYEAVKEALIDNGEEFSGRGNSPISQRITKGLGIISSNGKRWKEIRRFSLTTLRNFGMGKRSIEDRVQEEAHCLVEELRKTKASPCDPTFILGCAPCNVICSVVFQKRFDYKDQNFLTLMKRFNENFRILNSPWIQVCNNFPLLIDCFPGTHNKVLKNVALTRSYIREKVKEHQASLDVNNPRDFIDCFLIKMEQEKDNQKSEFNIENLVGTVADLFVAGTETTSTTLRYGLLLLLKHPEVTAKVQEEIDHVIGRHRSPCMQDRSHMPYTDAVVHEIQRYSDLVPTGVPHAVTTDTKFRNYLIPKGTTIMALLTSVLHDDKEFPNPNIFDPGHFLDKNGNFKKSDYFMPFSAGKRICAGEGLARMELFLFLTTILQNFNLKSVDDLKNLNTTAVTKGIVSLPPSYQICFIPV
# [16] = Initial plasma concentration in C57BL/6 mouse at 1 mg/kg, iv; assay type: ADME, organism-based
# [17] = Volume of distribution at steady state in C57BL/6 mouse at 1 mg/kg, iv; assay type: ADME, organism-based; conditions: in vivo, read-out: Vdss
# Cytochrome P450 2C9 = Cytochrome P450 2C9 (Homo sapiens, UniProt P11712); test: Inhibition of CYP2C9 (unknown origin); assay type: ADME
# [18] = Tmax in C57BL/6 mouse at 3 mg/kg, po; assay type: ADME, organism-based; conditions: in vivo
# [19] = AUC (0 to t) in C57BL/6 mouse at 3 mg/kg, po; assay type: ADME, organism-based; parameters: dose 3 mg/kg; conditions: in vivo
# [20] = Bioavailability in C57BL/6 mouse at 1 mg/kg, iv; assay type: ADME, organism-based; conditions: in vivo
# Cytochrome P450 2C9, sequence (P11712 whole entry): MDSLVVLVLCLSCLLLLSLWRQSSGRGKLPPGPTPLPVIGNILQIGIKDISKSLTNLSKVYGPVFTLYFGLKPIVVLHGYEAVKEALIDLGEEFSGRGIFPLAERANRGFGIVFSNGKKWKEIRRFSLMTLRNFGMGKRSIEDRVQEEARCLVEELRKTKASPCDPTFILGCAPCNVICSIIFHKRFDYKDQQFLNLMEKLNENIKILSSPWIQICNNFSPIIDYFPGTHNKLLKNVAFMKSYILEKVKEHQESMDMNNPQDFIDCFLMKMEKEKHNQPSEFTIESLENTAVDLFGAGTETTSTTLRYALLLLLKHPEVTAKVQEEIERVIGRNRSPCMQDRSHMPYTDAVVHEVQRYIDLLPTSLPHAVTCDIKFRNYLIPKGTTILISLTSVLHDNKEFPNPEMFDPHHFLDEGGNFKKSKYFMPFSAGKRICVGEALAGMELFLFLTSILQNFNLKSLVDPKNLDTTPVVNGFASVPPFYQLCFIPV
# Cytochrome P450 3A4, sequence (P08684 whole entry): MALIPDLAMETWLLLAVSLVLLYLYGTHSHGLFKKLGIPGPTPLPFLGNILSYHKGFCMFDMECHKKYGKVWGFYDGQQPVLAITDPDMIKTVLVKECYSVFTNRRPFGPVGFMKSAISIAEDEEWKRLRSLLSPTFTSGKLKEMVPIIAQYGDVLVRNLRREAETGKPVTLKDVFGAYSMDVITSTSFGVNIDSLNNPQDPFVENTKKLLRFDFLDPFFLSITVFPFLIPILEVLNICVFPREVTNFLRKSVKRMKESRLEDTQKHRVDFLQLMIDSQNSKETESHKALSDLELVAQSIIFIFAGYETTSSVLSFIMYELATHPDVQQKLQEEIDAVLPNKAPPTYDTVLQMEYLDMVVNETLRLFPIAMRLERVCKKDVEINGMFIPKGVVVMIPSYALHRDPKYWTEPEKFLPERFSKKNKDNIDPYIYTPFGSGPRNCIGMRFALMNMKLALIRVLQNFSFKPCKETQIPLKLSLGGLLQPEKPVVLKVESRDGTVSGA
# Cytochrome P450 2C19, sequence (P33261 whole entry): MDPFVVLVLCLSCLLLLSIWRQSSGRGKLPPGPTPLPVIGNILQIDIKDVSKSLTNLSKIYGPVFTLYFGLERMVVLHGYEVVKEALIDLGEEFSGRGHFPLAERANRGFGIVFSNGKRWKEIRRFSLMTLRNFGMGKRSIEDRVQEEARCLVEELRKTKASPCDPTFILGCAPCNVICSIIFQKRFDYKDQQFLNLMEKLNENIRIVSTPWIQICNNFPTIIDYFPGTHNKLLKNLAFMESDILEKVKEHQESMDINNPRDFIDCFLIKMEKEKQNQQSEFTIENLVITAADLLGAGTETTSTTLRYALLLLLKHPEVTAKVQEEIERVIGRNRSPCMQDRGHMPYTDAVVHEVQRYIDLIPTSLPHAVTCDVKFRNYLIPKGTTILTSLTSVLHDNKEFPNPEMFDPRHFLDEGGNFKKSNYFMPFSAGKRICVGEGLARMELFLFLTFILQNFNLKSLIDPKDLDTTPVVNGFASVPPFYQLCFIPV
smiles,measurement,setting,value
CCc1ccc(CCOc2ccc(CC3SC(=O)NC3=O)cc2)nc1 (configuration not stated) [PIOGLITAZONE],Activity,Mus musculus [1],-36%
same,Activity,Mus musculus [2],6%
COc1cccc(Oc2cc(S(=O)(=O)C(F)(F)F)ccc2NS(=O)(=O)c2ccccc2)c1,IC50,[3],460 nM
Cc1cccc(Oc2cc(S(=O)(=O)C(F)(F)F)ccc2NS(=O)(=O)c2ccccc2)c1,IC50,[3],1000 nM
O=S(=O)(Nc1ccc(S(=O)(=O)C(F)(F)F)cc1Oc1ccc(Cl)cc1)c1ccccc1,IC50,[3],> 1000 nM
O=S(=O)(Nc1ccc(S(=O)(=O)C(F)(F)F)cc1Oc1cccc(F)c1)c1ccccc1,IC50,[3],150 nM
O=C(c1ccccc1)c1cc(S(=O)(=O)C(F)(F)F)ccc1NS(=O)(=O)c1ccccc1,IC50,[3],600 nM
O=S(=O)(Nc1ccc(S(=O)(=O)C(F)(F)F)cc1Oc1ccccc1)c1ccccc1,IC50,[3],190 nM
O=C(Nc1ccccc1)c1cc(S(=O)(=O)C(F)(F)F)ccc1NS(=O)(=O)c1ccccc1,IC50,[3],> 1000 nM
O=S(=O)(Nc1ccc(S(=O)(=O)C(F)(F)F)cc1Oc1ccc(C(F)(F)F)cc1)c1ccccc1,IC50,[3],520 nM
O=S(=O)(Nc1ccc(S(=O)(=O)C(F)F)cc1Oc1ccccc1)c1ccccc1,IC50,[3],> 10000 nM
O=S(=O)(Nc1ccc(F)cc1Oc1ccccc1)c1ccccc1,IC50,[3],> 10000 nM
O=C(NO)c1ccc(NS(=O)(=O)c2ccccc2)c(Oc2ccccc2)c1,IC50,[3],> 10000 nM
Cc1cc(C)cc(Oc2cc(S(=O)(=O)C(F)(F)F)ccc2NS(=O)(=O)c2ccccc2)c1,IC50,[3],440 nM
CS(=O)(=O)c1ccc(NS(=O)(=O)c2ccccc2)c(Oc2ccccc2)c1,IC50,[3],> 10000 nM
O=S(=O)(Nc1ccc(S(=O)(=O)C(F)(F)F)cc1Oc1ccc(F)cc1)c1ccccc1,IC50,[3],200 nM
NC(c1ccccc1)c1cc(S(=O)(=O)C(F)(F)F)ccc1NS(=O)(=O)c1ccccc1 (configuration not stated),IC50,[3],> 1000 nM
O=S(=O)(Nc1ccc(C(F)(F)F)cc1Oc1ccccc1)c1ccccc1,IC50,[3],> 10000 nM
O=S(=O)(Nc1ccc(-c2nn[nH]n2)cc1Oc1ccccc1)c1ccccc1,IC50,[3],> 10000 nM
CS(=O)(=O)Nc1ccc([N+](=O)[O-])cc1Oc1ccccc1 [NIMESULIDE],IC50,[3],23000 nM
O=S(=O)(Nc1ccc(S(=O)(=O)C(F)(F)F)cc1S(=O)(=O)c1ccccc1)c1ccccc1,IC50,[3],> 1000 nM
N=C(NO)c1ccc(NS(=O)(=O)c2ccccc2)c(Oc2ccccc2)c1,IC50,[3],> 10000 nM
COc1ccc(Oc2cc(S(=O)(=O)C(F)(F)F)ccc2NS(=O)(=O)c2ccccc2)cc1OC,IC50,[3],> 1000 nM
COc1ccc(Oc2cc(S(=O)(=O)C(F)(F)F)ccc2NS(=O)(=O)c2ccccc2)cc1,IC50,[3],600 nM
O=S(=O)(Nc1ccc(S(=O)(=O)C(F)(F)F)cc1Nc1ccccc1)c1ccccc1,IC50,[3],690 nM
O=S(=O)(Nc1ccc(S(=O)(=O)C(F)(F)F)cc1OC1CCCCC1)c1ccccc1,IC50,[3],> 1000 nM
CN(C)c1cccc(Oc2cc(S(=O)(=O)C(F)(F)F)ccc2NS(=O)(=O)c2ccccc2)c1,IC50,[3],> 1000 nM
N#Cc1ccc(NS(=O)(=O)c2ccccc2)c(Oc2ccccc2)c1,IC50,[3],> 10000 nM
O=S(=O)(Nc1ccc(S(=O)(=O)C(F)(F)F)cc1C(O)c1ccccc1)c1ccccc1 (configuration not stated),IC50,[3],320 nM
CN1C2CCC1CC(OC(c1ccccc1)c1ccccc1)C2 (configuration not stated),IC50,[4],44000 nM
same,IC50,[3],71000 nM
COc1ccc(C(CCCN2CCOCC2)c2ccc(C)cc2)cc1 (configuration not stated),IC50,[4],20000 nM
same,IC50,[3],16000 nM
Cc1cc(C(=O)Nc2ccc(Cl)cc2C(F)(F)F)no1,IC50,[4],1900 nM
same,IC50,[3],3900 nM
O=S(=O)(Nc1ccc(S(=O)(=O)C(F)(F)F)cc1Oc1cc(F)cc(F)c1)c1ccccc1,inhibition (INH),Cytochrome P450 3A4,Active
same,Cmax,[5],3770 ng/mL
same,half-life,[6],4.05 h
same,MRT,[7],6.73 h
same,Stability,[8],Stable
same,AUC(0-t),[9],16200 ng·h/mL
same,inhibition (INH),Cytochrome P450 2C19,Active
same,MRT,[10],5.74 h
same,Stability,[11],Stable
same,clearance,[12],1.01 mL/min/kg
same,Stability,[13],Stable
same,Stability,[14],Stable
same,half-life,[15],5.39 h
same,Activity,Mus musculus [1],22.9%
same,inhibition (INH),Cytochrome P450 2C8,Active
same,C0,[16],6680 ng/mL
same,Vd,[17],0.35 L/kg
same,inhibition (INH),Cytochrome P450 2C9,Active
same,Tmax,[18],2 h
same,Activity,Mus musculus [2],-8.9%
same,IC50,[3],35 nM
same,AUC(0-t),[19],31300 ng·h/mL
same,bioavailability,[20],64%
COc1cc(F)cc(Oc2cc(S(=O)(=O)C(F)(F)F)ccc2NS(=O)(=O)c2ccccc2)c1,IC50,[3],100 nM
N=C(N)c1ccc(NS(=O)(=O)c2ccccc2)c(Oc2ccccc2)c1,IC50,[3],> 10000 nM
COC(=O)c1ccc(NS(=O)(=O)c2ccccc2)c(Oc2ccccc2)c1,IC50,[3],> 10000 nM
O=[N+]([O-])c1ccc(NS(=O)(=O)c2ccccc2)c(Oc2ccccc2)c1,IC50,[3],200 nM
CCNC(=O)/C=C/c1cccc(Br)c1 [CINROMIDE],IC50,[4],280 nM
same,IC50,[3],370 nM
O=S(=O)(Nc1ccc(S(=O)(=O)C(F)(F)F)cc1Oc1ccc(F)c(F)c1)c1ccccc1,IC50,[3],90 nM
O=S(=O)(Nc1ccc(S(=O)(=O)C(F)(F)F)cc1Oc1ccc(Cl)c(Cl)c1)c1ccccc1,IC50,[3],1000 nM
O=S(=O)(Nc1ccc(S(=O)(=O)C(F)(F)F)cc1Sc1ccccc1)c1ccccc1,IC50,[3],800 nM
c1ccc(CCCN2CCCCC2Cc2ccccc2)cc1 (configuration not stated),IC50,[4],90000 nM
same,IC50,[3],78000 nM
N#Cc1ccc(Oc2cc(S(=O)(=O)C(F)(F)F)ccc2NS(=O)(=O)c2ccccc2)cc1,IC50,[3],> 1000 nM
O=C(O)c1ccc(NS(=O)(=O)c2ccccc2)c(Oc2ccccc2)c1,IC50,[3],> 10000 nM
O=S(=O)(Nc1ccc(S(=O)(=O)C(F)(F)F)cc1-c1ccccc1)c1ccccc1,IC50,[3],370 nM
NC(=O)c1ccc(NS(=O)(=O)c2ccccc2)c(Oc2ccccc2)c1,IC50,[3],> 10000 nM
O=S(=O)(Nc1ccc(S(=O)(=O)C(F)(F)F)cc1OCc1ccccc1)c1ccccc1,IC50,[3],1000 nM
Cc1ccc(Oc2cc(S(=O)(=O)C(F)(F)F)ccc2NS(=O)(=O)c2ccccc2)cc1,IC50,[3],> 1000 nM
O=S(=O)(Nc1ccc(S(=O)(=O)C(F)(F)F)cc1Oc1cccnc1)c1ccccc1,IC50,[3],> 1000 nM
O=S(=O)(Nc1ccc(S(=O)(=O)C(F)(F)F)cc1Oc1cccc(Cl)c1)c1ccccc1,IC50,[3],> 1000 nM
